In ChEMBL document CHEMBL1145874, “Discovery and SAR of novel, potent and selective protein tyrosine phosphatase 1B inhibitors” (Bioorg Med Chem Lett, 2003):

Columns and labels:
[1] = molecular target: T1, Tyrosine-protein phosphatase non-receptor type 11 (Homo sapiens, UniProt Q06124); test: Inhibitory potency against Tyrosine phosphatase SHP2
T1 sequence (Q06124 whole entry): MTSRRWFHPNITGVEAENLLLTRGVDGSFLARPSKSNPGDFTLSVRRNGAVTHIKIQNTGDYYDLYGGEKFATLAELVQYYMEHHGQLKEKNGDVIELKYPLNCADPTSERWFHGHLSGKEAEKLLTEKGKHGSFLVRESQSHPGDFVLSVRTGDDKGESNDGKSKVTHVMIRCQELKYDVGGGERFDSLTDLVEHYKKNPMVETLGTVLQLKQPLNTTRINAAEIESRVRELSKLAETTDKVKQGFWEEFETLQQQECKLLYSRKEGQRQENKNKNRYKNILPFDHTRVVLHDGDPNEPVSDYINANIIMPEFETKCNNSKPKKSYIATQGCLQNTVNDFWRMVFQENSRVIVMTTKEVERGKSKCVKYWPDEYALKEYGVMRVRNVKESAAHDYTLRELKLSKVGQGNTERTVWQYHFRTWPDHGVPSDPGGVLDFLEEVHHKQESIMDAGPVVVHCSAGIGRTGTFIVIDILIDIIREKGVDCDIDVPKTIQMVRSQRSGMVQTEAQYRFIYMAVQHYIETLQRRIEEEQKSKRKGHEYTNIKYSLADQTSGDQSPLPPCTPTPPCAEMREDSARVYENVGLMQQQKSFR

[2] = molecular target: T2, Receptor-type tyrosine-protein phosphatase C (Homo sapiens, UniProt P08575); test: Inhibitory potency against CD45 Phosphatase
T2 sequence (P08575 whole entry): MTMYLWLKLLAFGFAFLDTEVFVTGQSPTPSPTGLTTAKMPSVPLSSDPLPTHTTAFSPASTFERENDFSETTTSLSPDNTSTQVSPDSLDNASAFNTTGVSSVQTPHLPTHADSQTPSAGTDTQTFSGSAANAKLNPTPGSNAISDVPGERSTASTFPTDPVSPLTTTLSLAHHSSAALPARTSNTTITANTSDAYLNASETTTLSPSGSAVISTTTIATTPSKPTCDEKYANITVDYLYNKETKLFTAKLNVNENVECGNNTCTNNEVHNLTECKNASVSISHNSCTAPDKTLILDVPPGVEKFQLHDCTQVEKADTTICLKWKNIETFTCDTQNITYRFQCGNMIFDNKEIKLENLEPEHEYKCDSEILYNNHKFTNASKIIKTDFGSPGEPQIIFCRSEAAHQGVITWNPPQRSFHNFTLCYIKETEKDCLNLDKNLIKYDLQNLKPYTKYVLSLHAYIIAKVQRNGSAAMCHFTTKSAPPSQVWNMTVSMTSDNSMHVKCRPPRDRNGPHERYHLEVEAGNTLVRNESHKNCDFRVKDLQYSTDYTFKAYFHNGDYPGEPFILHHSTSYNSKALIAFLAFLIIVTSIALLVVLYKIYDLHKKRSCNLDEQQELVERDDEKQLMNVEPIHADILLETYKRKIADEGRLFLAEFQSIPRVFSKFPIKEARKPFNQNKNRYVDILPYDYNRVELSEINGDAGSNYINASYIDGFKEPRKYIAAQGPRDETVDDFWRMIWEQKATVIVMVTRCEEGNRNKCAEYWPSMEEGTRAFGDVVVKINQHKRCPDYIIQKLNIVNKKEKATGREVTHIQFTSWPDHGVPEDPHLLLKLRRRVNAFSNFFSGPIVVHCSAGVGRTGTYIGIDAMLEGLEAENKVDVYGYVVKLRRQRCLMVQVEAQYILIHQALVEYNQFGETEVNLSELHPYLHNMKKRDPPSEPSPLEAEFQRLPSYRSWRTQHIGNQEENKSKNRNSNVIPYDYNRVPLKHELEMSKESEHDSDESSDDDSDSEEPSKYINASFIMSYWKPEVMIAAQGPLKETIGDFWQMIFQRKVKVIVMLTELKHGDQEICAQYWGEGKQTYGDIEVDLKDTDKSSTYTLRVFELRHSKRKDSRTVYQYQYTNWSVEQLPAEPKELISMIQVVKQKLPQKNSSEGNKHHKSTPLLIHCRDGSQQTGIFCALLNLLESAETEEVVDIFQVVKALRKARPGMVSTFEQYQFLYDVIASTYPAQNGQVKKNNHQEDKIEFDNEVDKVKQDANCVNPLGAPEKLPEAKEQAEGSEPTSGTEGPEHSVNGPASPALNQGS

[3] = molecular target: Receptor-type tyrosine-protein phosphatase F (Homo sapiens, UniProt P10586); test: Inhibitory potency against LAR
[4] = molecular target: T3, M-phase inducer phosphatase 3 (Homo sapiens, UniProt P30307); test: Inhibitory potency against Cell division cycle 25 degree C
T3 sequence (P30307 whole entry): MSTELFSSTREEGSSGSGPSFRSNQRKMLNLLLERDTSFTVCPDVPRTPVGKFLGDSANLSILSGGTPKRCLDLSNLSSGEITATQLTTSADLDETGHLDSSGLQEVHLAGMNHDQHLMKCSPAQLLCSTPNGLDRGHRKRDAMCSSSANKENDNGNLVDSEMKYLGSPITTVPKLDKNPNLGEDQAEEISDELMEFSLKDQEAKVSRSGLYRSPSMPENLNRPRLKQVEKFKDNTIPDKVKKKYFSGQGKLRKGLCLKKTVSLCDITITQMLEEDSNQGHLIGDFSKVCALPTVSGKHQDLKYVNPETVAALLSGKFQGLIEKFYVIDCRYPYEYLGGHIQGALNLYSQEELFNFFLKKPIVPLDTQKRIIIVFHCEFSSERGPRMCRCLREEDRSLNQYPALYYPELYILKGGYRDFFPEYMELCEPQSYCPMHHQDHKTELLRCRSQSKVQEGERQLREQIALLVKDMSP

[5] = molecular target: Tyrosine-protein phosphatase non-receptor type 2 (Homo sapiens, UniProt P17706); test: Inhibition of T-cell Protein Tyrosine Phosphatase (TCPTP)
[6] = molecular target: T4, Tyrosine-protein phosphatase non-receptor type 1 (Homo sapiens, UniProt P18031); test: Inhibition of Protein-tyrosine phosphatase 1B (PTP1B)
T4 sequence (P18031 whole entry): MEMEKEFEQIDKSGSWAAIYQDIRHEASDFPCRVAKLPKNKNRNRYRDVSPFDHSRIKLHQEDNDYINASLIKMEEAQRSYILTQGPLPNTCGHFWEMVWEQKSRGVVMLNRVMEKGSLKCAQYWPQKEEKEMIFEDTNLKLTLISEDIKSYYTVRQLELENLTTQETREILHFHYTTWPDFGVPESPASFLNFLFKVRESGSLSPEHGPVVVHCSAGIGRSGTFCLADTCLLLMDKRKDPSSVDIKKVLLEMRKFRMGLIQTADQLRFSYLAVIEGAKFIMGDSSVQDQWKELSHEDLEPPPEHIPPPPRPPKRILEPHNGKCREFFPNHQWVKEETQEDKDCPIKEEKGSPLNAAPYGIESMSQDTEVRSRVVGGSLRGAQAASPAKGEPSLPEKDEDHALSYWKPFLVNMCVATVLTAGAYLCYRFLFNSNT

Sequence of Receptor-type tyrosine-protein phosphatase F (P10586 whole entry): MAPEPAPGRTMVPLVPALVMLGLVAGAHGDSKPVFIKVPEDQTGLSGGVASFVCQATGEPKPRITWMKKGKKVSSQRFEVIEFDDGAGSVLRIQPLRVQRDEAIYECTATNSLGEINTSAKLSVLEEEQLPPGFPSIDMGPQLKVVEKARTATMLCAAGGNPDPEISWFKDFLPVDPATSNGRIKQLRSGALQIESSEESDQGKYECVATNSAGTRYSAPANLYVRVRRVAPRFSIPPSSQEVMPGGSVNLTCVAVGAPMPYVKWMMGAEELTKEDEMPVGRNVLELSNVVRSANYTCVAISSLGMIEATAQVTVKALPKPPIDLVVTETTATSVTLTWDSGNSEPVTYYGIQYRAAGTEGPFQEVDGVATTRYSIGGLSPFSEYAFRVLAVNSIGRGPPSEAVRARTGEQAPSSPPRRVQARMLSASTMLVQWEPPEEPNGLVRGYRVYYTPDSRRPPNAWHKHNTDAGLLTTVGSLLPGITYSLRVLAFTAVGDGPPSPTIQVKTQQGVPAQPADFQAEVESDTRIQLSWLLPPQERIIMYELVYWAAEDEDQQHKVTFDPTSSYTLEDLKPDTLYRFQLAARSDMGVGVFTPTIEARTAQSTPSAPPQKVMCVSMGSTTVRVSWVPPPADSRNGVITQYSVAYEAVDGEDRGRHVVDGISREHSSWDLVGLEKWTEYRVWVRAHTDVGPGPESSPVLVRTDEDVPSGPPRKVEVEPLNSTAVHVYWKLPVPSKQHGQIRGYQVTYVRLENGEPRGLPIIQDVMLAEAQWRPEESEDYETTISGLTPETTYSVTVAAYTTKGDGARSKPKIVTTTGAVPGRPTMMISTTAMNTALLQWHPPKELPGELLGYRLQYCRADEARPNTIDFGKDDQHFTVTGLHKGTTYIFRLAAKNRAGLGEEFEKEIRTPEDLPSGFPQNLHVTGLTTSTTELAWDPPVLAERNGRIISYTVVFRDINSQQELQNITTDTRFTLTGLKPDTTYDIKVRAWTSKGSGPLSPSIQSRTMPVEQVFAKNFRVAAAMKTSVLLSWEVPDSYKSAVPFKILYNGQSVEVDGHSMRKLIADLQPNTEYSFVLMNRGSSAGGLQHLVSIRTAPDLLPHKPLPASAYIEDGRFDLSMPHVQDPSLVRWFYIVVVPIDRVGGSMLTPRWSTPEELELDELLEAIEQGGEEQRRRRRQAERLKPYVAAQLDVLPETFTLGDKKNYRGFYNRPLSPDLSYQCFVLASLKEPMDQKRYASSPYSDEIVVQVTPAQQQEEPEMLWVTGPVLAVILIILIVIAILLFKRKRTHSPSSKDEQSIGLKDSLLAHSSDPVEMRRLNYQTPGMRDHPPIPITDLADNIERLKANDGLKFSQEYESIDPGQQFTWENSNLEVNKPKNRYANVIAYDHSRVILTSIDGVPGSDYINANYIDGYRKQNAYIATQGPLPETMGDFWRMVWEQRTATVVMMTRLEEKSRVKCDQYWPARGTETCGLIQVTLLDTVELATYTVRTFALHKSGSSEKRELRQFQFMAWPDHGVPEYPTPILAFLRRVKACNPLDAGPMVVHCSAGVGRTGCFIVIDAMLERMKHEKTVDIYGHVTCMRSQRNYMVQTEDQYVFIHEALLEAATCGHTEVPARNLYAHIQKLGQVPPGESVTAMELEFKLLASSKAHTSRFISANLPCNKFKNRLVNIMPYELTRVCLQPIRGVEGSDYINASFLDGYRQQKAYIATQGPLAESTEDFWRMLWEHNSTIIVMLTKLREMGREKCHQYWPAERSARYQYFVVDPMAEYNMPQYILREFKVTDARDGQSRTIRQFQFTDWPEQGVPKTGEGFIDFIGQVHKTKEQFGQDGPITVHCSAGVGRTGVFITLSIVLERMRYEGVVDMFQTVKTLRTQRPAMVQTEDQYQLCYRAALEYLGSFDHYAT
Sequence of Tyrosine-protein phosphatase non-receptor type 2 (P17706 whole entry, looked up): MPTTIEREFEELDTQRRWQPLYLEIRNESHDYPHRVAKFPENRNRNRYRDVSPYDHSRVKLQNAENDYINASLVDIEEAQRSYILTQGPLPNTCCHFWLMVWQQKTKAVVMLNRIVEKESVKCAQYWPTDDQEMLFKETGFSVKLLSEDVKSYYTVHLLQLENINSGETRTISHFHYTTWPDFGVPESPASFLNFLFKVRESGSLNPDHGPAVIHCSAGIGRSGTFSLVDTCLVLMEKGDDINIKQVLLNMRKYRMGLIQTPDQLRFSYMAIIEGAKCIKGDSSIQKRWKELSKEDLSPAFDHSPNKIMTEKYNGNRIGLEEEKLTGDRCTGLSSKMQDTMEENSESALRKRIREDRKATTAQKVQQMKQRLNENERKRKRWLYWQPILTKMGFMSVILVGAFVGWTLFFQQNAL

Structure (SMILES) | Ki [1] | Ki [2] | Ki [3] | Ki [4] | Ki [5] | Ki [6]
COC(=O)c1c(O)cccc1OCCCCNC(=O)C(Cc1ccc(OC(C(=O)O)C(=O)O)cc1)NC(=O)OC(C)(C)C (stereo unspecified) | > 30 µM | > 30 µM | > 30 µM | > 30 µM | 24.8 µM | –
COC(=O)c1c(O)cccc1OCCCCNC(=O)[C@H](Cc1ccc(N(CCC(=O)O)C(=O)C(=O)O)cc1)NC(=O)OC(C)(C)C | – | – | – | – | > 200 µM | > 200 µM
COC(=O)c1c(O)cccc1OCCCCNC(=O)C(Cc1ccc(OC(C(=O)O)C(=O)NC2CC2)cc1)NC(=O)OC(C)(C)C (stereo unspecified) | – | – | – | – | > 200 µM | 8.4 µM
COC(=O)c1c(O)cccc1OCCCCNC(=O)[C@H](Cc1ccc(OCC(=O)O)cc1)NC(=O)OC(C)(C)C | – | – | – | – | > 200 µM | 220 µM
COC(=O)c1c(O)cccc1OCCCCNC(=O)[C@H](Cc1ccc(OC(C)C(=O)O)c(C(=O)O)c1)NC(=O)OC(C)(C)C (stereo partly specified) | – | – | – | – | 273 µM | 48.6 µM
CCC(CN(C(=O)C(=O)O)c1ccc(C[C@H](NC(=O)OC(C)(C)C)C(=O)NCCCCOc2cccc(O)c2C(=O)OC)cc1)C(=O)O (stereo partly specified) | > 30 µM | > 30 µM | > 30 µM | > 30 µM | 9 µM | 1.7 µM
COC(=O)c1c(O)cccc1OCCCCNC(=O)[C@H](Cc1ccc(OCC(=O)O)c(C(=O)O)c1)NC(=O)OC(C)(C)C | – | – | – | – | > 30 µM | 2.1 µM
COC(=O)c1c(O)cccc1OCCCCNC(=O)[C@H](Cc1ccc(OC(C)C(=O)O)c(C(=O)O)c1)NC(=O)[C@H](Cc1ccccc1)NC(=O)OC(C)(C)C (stereo partly specified) | > 30 µM | > 30 µM | > 30 µM | > 30 µM | 1.97 µM | 0.16 µM
COC(=O)c1c(O)cccc1OCCCCNC(=O)[C@H](Cc1ccc(N(CC(C)C(=O)O)C(=O)C(=O)O)cc1)NC(=O)OC(C)(C)C (stereo partly specified) | – | – | – | – | 16.7 µM | 3.2 µM
COC(=O)c1c(O)cccc1OCCCCNC(=O)[C@H](Cc1ccc(OCC(=O)O)c(C(=O)O)c1)NC(C)=O | – | – | – | – | 129 µM | 9.4 µM
COC(=O)c1c(O)cccc1OCCCCNC(=O)[C@H](Cc1ccc(N(CC(C(=O)O)c2ccccc2)C(=O)C(=O)O)cc1)NC(=O)OC(C)(C)C (stereo partly specified) | – | – | – | – | 97.8 µM | 15.2 µM
CCC(CC(=O)O)N(C(=O)C(=O)O)c1ccc(C[C@H](NC(=O)OC(C)(C)C)C(=O)NCCCCOc2cccc(O)c2C(=O)OC)cc1 (stereo partly specified) | – | – | – | – | – | 1.8 µM
COC(=O)c1c(O)cccc1OCCCCNC(=O)C(Cc1ccc(OC(C(N)=O)C(=O)O)cc1)NC(=O)OC(C)(C)C (stereo unspecified) | – | – | – | – | 79.5 µM | 13.8 µM
